Reference: PubChem BioAssay (NCI)
Where “and” joins values, the source holds several entries; their conditions need not be identical. Equal entries are not always repeated.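 The compound was tested at five concentrations on cells cultured in 96-well plates, with a 48-hour exposure period. GI50 is the concentration that inhibits growth by half. Definition used: TGI = concentration required for complete inhibition of growth.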 *1 amine or outer side, *2 acyl side, *3 side chain or, on linkers, in order; H or OH if unused. Where a SMILES comes first, the peptide text is derived from it. [ ]: non-standard residue; d: D form. The star is where a group is joined. X31 = CC(=O)N(C)SCC(N[*:1])C(=O)[*:2]; Fmoc = O=C(OCC1c2ccccc2-c2ccccc21)*; For = O=C*

Columns and labels:
Assay in all cases: DTP human tumour cell line panel, 48 h
[1] = system: MDA-MB-231 breast
[2] = system: SF-295 CNS
[3] = system: OVCAR-4 ovarian
[4] = system: ACHN renal
[5] = system: HCC-2998 colon
[6] = system: SF-539 CNS
[7] = system: HCT-116 colon
[8] = system: MDA-MB-435
[9] = system: TK-10 renal
[10] = system: SK-OV-3 ovarian
[11] = system: EKVX NSCLC

Compound | TGI [1] | TGI [2] | TGI [3] | TGI [4] | TGI [5] | TGI [6] | TGI [7] | TGI [8] | TGI [9] | TGI [10] | TGI [11] | GI50 [1] | GI50 [2] | GI50 [3] | GI50 [5] | GI50 [7] | GI50 [8] | GI50 [9] | GI50 [11]
COC(=O)C1=NN2c3ccccc3CN([C@@H](C)c3ccccc3)C(=O)[C@H]2[C@@H]1C | > 100 µM | > 100 µM | > 100 µM | > 100 µM | > 100 µM | > 100 µM | > 100 µM | > 100 µM | > 100 µM | > 100 µM | > 100 µM |  |  |  |  |  |  |  | 
O=c1c(Sc2ncccn2)c(Sc2ncccn2)cnn1CCl | 19 µM | 30 µM | 6.14 µM | 5.45 µM | 24 µM | 4 µM | 3.89 µM | 3.87 µM | 11.4 µM | 23.2 µM | 8.65 µM |  |  |  |  |  |  |  | 
COc1ccc(N2C(=O)C3c4[nH]c5ccc(OCc6ccccc6)cc5c4C4CCC(C(C)C)CC4C3C2=O)cc1 (stereo not drawn) | 37.9 µM | 29.3 µM | > 100 µM | > 30.4 µM | > 100 µM | 23.5 µM | > 100 µM | > 100 µM | > 80.4 µM | 43 µM | > 100 µM |  |  |  |  |  |  |  | 
CC1=C(C(=O)NC(C)(C)C)CC(C(=O)NC(C)(C)C)C(C)N1 (stereo not drawn) | > 100 µM | > 100 µM | > 100 µM | > 100 µM | > 100 µM | > 100 µM | > 100 µM | > 100 µM | > 100 µM | > 100 µM | > 100 µM |  |  |  |  |  |  |  | 
CN1CCCC(C(=O)OCC(=O)C2(O)CCC3C4CCC5=CC(=O)CCC5(C)C4C(O)CC32C)C1 (stereo not drawn) | 19.2 µM | 46.6 µM | 32.5 µM | 34.8 µM | 22.1 µM | 4.38 µM | 23.5 µM | 33.4 µM | 42.2 µM | 45.6 µM | 67.1 µM |  |  |  |  |  |  |  | 
O=C(Nc1ccc(S(=O)(=O)Nc2ncccn2)cc1)c1c2ccccc2nc2ccccc12 | > 100 µM | > 100 µM | > 100 µM | > 100 µM | > 100 µM | > 100 µM | > 100 µM | > 100 µM | > 100 µM | > 100 µM | > 100 µM |  |  |  |  |  |  |  | 
O=C(O)CO/N=C1/C(c2c(O)[nH]c3ccccc23)=Nc2ccccc21 | > 100 µM | > 100 µM | > 100 µM | > 100 µM | > 100 µM | > 100 µM | > 100 µM | > 100 µM | > 100 µM | 68.1 µM | > 100 µM |  |  |  |  |  |  |  | 
CCN(CC)CCC(=O)O[C@H]1CC[C@H](CC(C)[C@H]2CC(=O)C(C)C=C(C)[C@H](OC(=O)CCN(CC)CC)C(OC)C(=O)[C@@H](C)CC(C)/C=C/C=C/C=C(C)C(OC)CC3CC[C@H](C)[C@](O)(O3)C(=O)C(=O)N3CCCCC3C(=O)O2)CC1OC (stereo partly drawn) | 8.14 µM and 1.74 µM | 1.46 µM and 1.98 µM | > 10 µM and 2.46 µM | 2.62 µM and 4.48 µM | 2.29 µM and 2.04 µM | 1.99 µM and 1.81 µM | 2.57 µM and 2.54 µM | 2.35 µM and 2.04 µM | 6.12 µM and 4.25 µM | 5.53 µM | > 10 µM | 1.86 µM | 0.0016 µM | 0.00163 µM | 1.03 µM | 1.24 µM | 1.14 µM | 1.4 µM | 0.00704 µM
CC(=O)NC1C(OCc2ccccc2)OC(CO)C(O)C1OCC(=O)N1CCCC1C(=O)NC(CCC(=O)NCCCCCNc1c2ccccc2nc2cccc([N+](=O)[O-])c12)C(N)=O (stereo not drawn) | 0.0426 µM | 0.724 µM | 3.98 µM | 0.0813 µM | 0.027 µM | 0.097 µM | 0.137 µM | 0.033 µM | 0.762 µM | 0.538 µM | 0.633 µM |  |  |  |  |  |  |  | 
O=C(O)CCc1nc2cc3ccccc3cc2[nH]c1=O | > 100 µM | > 100 µM | > 100 µM | > 100 µM | > 100 µM | > 100 µM | > 100 µM | > 100 µM | > 100 µM | > 100 µM | > 100 µM |  |  |  |  |  |  |  | 
Oc1ccccc1-n1nc2ccc3nonc3c2n1 | > 100 µM | > 100 µM | > 100 µM | > 100 µM | > 100 µM | > 100 µM | > 100 µM | > 100 µM | > 100 µM | > 100 µM | > 100 µM |  |  |  |  |  |  |  | 
S=C(Nc1cccc(C2(N3CCCCC3)CCCCC2)c1)Nc1cccc(C2(N3CCCCC3)CCCCC2)c1 | 32.5 µM | > 100 µM | > 100 µM | 54 µM | 6.07 µM | 31.3 µM | 48.4 µM | 30.6 µM | 7.39 µM | > 100 µM | > 100 µM |  |  |  |  |  |  |  | 
c1cc(C[S+]2CCCC2)oc1C[S+]1CCCC1 | > 100 µM | > 100 µM | > 100 µM | > 100 µM | > 100 µM | > 100 µM | > 100 µM | > 100 µM | > 100 µM | > 100 µM | > 100 µM |  |  |  |  |  |  |  | 
C=CC[C@H]1[C@H](O[Si](C)(C)C(C)(C)C)C=CC(=O)[C@@H]1CC(=O)OCC | 27.6 µM | 27.8 µM | 25.2 µM | 27.2 µM | 25.5 µM | 30.8 µM | 23.5 µM | 26.4 µM | 28 µM | 34.1 µM | 24.2 µM |  |  |  |  |  |  |  | 
NCCCCCNOCCCN | > 100 µM | > 100 µM | > 100 µM | > 100 µM | > 100 µM | > 100 µM | > 100 µM | > 100 µM | > 100 µM | > 100 µM | > 100 µM |  |  |  |  |  |  |  | 
COc1nc(C)nc2c1ncn2Cc1ccccc1 | > 100 µM | > 100 µM | > 100 µM | > 100 µM | > 100 µM | > 100 µM | > 100 µM | > 100 µM | > 100 µM | > 100 µM | > 100 µM |  |  |  |  |  |  |  | 
COC(=O)CCC(C)[C@H]1CCC2C3C(C[C@H](OC(C)=O)[C@@]21C)[C@@]1(C)CCC2(C[C@H]1C[C@H]3OC(C)=O)OOC1(CCCCC1)OO2 (stereo partly drawn) | > 100 µM | 80.4 µM | 50.9 µM | 77.3 µM | > 100 µM | > 100 µM | > 100 µM | > 100 µM | > 100 µM | > 100 µM | 18.8 µM |  |  |  |  |  |  |  | 
Nc1nc(NCCOCP(=O)(O)O)c(N)c(=O)[nH]1 | > 100 µM | > 100 µM | > 100 µM | > 100 µM | > 100 µM | > 100 µM | > 100 µM | > 100 µM | > 100 µM | > 100 µM | > 100 µM |  |  |  |  |  |  |  | 
C(=N/NC1=NCCN1)/c1c2ccccc2c(/C=N\NC2=NCCN2)c2ccccc12 | 1.66 µM and 12.5 µM | 1.98 µM and 2.11 µM and 2.71 µM | 0.4 µM and 0.584 µM and 1.1 µM | 1.26 µM and 3.97 µM | 0.439 µM and 0.47 µM and 0.658 µM | 0.345 µM and 0.857 µM and 0.402 µM | 0.468 µM and 1.18 µM and 1.21 µM | 0.271 µM and 0.477 µM | 4.73 µM and 12.9 µM | 0.526 µM and 1.82 µM and 3.48 µM | 2.32 µM and 2.94 µM and 1.57 µM | 0.459 µM |  |  |  |  | 0.155 µM |  | 
CC(=O)/C(=C(/Br)I)c1ccccc1 | 28.7 µM | 29 µM | 25 µM | 27.6 µM | 12.3 µM | 47.8 µM | 15.2 µM | 11.9 µM | 36.3 µM | > 64.5 µM | 26.5 µM |  |  |  |  |  |  |  | 
CCOC(=O)c1ccc(Nc2cnc3ccc(C(F)(F)F)cc3n2)cc1 | 43.7 µM | 50.6 µM | 32 µM | 28.5 µM | 26.7 µM | 63.4 µM | 28 µM | 61.8 µM | 26.9 µM | > 100 µM | 58.4 µM |  |  |  |  |  |  |  | 
Cc1ccc([N+](=O)[O-])c2c(NCCC[N+](C)(C)[O-])ccnc12 | > 100 µM | > 100 µM | 59.2 µM | > 100 µM | 58.9 µM | > 100 µM | > 100 µM | > 100 µM | > 100 µM | > 100 µM | > 100 µM |  |  |  |  |  |  |  | 
CC(=O)N(C)SCC(NC(=O)C(Cc1ccccc1)NC(=O)OCC1c2ccccc2-c2ccccc21)C(=O)NC(Cc1ccccc1)C(=O)NC(Cc1cn(C=O)c2ccccc12)C(=O)NC(CCCCNC(=O)OCC1c2ccccc2-c2ccccc21)C(=O)NC(C(=O)NC(CSN(C)C(C)=O)C(=O)NC(C(N)=O)C(C)O)C(C)O (stereo not drawn) (Fmoc-F[X31]FW(For)K(Fmoc)T[X31]T-NH2; configuration not given here) | 51.4 µM | > 100 µM | > 100 µM | > 100 µM | > 100 µM | > 100 µM | > 100 µM | > 100 µM | 67.5 µM | > 100 µM | > 100 µM |  |  |  |  |  |  |  | 
